From patent publication US7592457B2 (Korea Research Institute of Chemical Technology, priority 2004, dated 2009) come the findings set out here.

For assay [1], the target named is T1, human serotonin 5-HT6 receptor (Homo sapiens, UniProt P50406).
T1 construct: made in house; host or cells: Sf21 insect cells (pBacPAK8 baculovirus vector)
The experiment in a line: [3H]LSD binding at cloned 5-HT6 receptors. As to conditions: for IC50: [3H]LSD 1.87 nM, cloned receptor membranes, 37° C., 60 min, read-out: IC50; for inhibition at 10 µM: read-out: Binding affinity (Inhibition rate % at 10 μM) 5HT6.

Assay [2] concerns the target T2, hD3 receptor (Homo sapiens, UniProt P35462).
T2 construct: purchased BioSignal Packard Inc., Montreal, Canada
The experiment in a line: Radioligand binding, dopamine D3 ([3H]spiperone). The following applies: read-out: Binding affinity (Inhibition rate % at 10 μM) D3. Here is the method: (§1) The radioligands used were [^3H] spiperone (for hD2L and hD3 receptors, 1 nM) and [^3H] YM-09151-2 (for hD4.2 receptor, 0.06 nM). Radioligand bindings were performed by the protocols provided by the supplier of receptor membranes (BioSignal Packard Inc., Montreal, Canada). Briefly, the buffer used in D2 or D3 receptor binding assay was 50 mM Tris-HCl (pH 7.4), 10 mM MgCl2, 1 mM EDTA, or 50 mM Tris-HCl (pH 7.4), 5 mM MgCl2, 5 mM EDTA, 5 mM KCl, 1.5 mM CaCl2, 120 mM NaCl, respectively. In [^3H] YM-09151-2 receptor binding assays, the buffer containing 50 mM Tris-HCl (pH 7.4), 5 mM MgCl2, 5 mM EDTA, 5 mM KCl and 1.5 mM CaCl2 was used. Nonspecific binding was determined with haloperidol (10 μM) or clozapine (10 μM) for D2 and D3, and D4 receptors, respectively. Competition binding studies were carried out with 7-8 concentrations of the test compound run in duplicate tubes, and isotherms from three assays were calculated by computerized nonlinear regression analysis (GraphPad Prism Program, San Diego, […]) to yield median inhibitory concentration (IC50) values.

Assay [3] concerns the target T3, hD2L receptor (Homo sapiens, UniProt P14416).
T3 construct: purchased BioSignal Packard Inc., Montreal, Canada
The experiment in a line: Radioligand binding, dopamine D2 ([3H]spiperone). The following applies: read-out: Binding affinity (Inhibition rate % at 10 μM) D2. Here is the method:
as §1

Assay [4] addresses T4, 5-HT7 (Homo sapiens, UniProt P34969).
T4 construct: purchased Euroscreen/BioSignal Packard Inc
The experiment in a line: Radioligand binding, 5-HT7 ([3H]LSD). The following applies: read-out: Binding affinity (Inhibition rate % at 10 μM) 5HT7. Here is the method:
(§2) Radioligand bindings were performed according to the test method provided by the supplier of receptor membrane (Euroscreen/BioSignal Packard Inc.).

For assay [5], the target named is T5, 5-HT2a (Homo sapiens, UniProt P28223).
T5 construct: purchased Euroscreen/BioSignal Packard Inc
The experiment in a line: Radioligand binding, 5-HT2a ([3H]Ketanserin). The following applies: read-out: Binding affinity (Inhibition rate % at 10 μM) 5HT2a. Here is the method:
as §2

Assay [6] concerns the target T6, 5-HT1a (Homo sapiens, UniProt P08908).
T6 construct: purchased Euroscreen/BioSignal Packard Inc
T6 sequence (P08908 1-422): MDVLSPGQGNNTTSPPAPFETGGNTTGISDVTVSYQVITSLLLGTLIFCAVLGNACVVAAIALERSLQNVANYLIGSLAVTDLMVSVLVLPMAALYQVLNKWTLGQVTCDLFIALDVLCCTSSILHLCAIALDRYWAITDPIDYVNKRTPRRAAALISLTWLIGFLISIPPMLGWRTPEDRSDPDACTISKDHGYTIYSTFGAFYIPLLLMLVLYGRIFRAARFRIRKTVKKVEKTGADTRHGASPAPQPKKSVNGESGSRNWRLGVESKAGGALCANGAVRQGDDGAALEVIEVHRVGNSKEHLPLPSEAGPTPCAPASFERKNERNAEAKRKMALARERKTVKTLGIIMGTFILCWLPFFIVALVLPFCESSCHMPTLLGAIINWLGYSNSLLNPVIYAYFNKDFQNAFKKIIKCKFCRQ
The experiment in a line: Radioligand binding, 5-HT1a ([3H]8-OH-DPAT). The following applies: read-out: Binding affinity (Inhibition rate % at 10 μM) 5HT1a. Here is the method: as §2

The target in assay [7] is T7, hD4.2 receptor (Homo sapiens, UniProt P21917, DEL265-296).
T7 construct: purchased BioSignal Packard Inc., Montreal, Canada
T7 sequence (P21917 with tags, fused parts or gaps DEL265-296): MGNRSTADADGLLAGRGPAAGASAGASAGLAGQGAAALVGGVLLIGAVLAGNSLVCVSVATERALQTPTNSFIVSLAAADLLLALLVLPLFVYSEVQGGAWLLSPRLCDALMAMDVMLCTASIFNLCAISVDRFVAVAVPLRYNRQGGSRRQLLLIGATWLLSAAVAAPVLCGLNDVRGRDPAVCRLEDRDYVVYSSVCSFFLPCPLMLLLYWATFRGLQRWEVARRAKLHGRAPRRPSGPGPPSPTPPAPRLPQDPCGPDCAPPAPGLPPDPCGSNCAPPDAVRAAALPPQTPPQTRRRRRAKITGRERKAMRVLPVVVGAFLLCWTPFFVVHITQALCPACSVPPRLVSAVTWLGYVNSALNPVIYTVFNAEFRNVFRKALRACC
The experiment in a line: Radioligand binding, dopamine D4 ([3H]YM-09151-2). As to conditions: read-out: Binding affinity (Inhibition rate % at 10 μM) D4. Here is the method:
as §1

For assay [8], the target named is T8, 5-HT2c (Homo sapiens, UniProt P28335).
T8 construct: purchased Euroscreen/BioSignal Packard Inc
T8 sequence (P28335 33-458): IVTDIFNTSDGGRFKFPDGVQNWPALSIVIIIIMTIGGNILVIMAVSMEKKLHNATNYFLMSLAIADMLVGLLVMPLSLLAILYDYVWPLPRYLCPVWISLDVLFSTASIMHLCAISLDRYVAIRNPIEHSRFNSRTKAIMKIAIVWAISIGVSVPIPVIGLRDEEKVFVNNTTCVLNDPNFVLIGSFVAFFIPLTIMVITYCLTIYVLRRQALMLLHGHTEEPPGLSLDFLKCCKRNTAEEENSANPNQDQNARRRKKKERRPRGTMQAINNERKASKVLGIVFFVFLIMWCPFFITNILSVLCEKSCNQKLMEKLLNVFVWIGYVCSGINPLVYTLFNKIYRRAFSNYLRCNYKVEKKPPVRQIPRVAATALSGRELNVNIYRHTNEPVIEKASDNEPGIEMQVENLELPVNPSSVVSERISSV
The experiment in a line: Radioligand binding, 5-HT2c ([3H]Mesulergine). The following applies: read-out: Binding affinity (Inhibition rate % at 10 μM) 5HT2c. Here is the method:
as §2

Assay [9] deals with D1 (Homo sapiens, UniProt P21728). The experiment in a line: Radioligand binding for selectivity, D1. The following applies: read-out: Binding affinity (Inhibition rate % at 10 μM) D1.
Sequence of D1 (P21728 whole entry): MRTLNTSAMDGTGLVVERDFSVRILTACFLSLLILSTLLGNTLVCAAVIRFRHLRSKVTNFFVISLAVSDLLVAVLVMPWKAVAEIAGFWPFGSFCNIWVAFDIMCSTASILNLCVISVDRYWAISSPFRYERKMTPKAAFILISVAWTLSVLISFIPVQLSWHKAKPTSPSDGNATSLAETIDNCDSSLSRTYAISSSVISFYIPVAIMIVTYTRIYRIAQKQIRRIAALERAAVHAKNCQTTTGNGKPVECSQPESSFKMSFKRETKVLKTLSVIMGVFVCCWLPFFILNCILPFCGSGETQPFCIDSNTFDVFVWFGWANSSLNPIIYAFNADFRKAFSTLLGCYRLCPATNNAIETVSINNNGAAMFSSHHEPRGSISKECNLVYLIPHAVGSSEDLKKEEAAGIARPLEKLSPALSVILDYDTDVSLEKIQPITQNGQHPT

T3 sequence (P14416 whole entry): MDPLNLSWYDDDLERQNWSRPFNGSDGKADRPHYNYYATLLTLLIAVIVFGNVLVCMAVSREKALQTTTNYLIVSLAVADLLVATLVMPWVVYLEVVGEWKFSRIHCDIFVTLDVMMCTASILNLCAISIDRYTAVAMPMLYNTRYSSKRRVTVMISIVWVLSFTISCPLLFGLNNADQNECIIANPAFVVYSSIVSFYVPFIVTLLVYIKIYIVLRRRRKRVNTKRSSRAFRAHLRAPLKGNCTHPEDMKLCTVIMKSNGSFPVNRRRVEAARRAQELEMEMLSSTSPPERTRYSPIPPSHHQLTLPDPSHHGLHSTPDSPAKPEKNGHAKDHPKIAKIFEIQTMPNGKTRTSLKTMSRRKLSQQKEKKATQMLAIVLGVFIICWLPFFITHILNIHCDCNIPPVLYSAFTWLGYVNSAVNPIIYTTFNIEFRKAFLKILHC
T5 sequence (P28223 whole entry): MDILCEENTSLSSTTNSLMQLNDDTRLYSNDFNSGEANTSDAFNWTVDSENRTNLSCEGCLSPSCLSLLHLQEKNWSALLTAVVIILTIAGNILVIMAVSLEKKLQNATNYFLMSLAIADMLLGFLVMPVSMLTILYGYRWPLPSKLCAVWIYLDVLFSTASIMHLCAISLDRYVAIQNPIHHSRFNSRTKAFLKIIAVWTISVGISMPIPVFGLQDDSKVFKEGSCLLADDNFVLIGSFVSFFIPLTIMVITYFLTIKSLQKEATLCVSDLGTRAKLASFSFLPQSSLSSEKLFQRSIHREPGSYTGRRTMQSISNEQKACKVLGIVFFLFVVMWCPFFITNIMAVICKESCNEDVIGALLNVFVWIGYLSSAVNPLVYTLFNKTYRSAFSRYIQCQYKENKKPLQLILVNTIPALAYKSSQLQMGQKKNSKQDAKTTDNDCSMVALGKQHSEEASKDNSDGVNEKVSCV
T4 sequence (P34969 whole entry): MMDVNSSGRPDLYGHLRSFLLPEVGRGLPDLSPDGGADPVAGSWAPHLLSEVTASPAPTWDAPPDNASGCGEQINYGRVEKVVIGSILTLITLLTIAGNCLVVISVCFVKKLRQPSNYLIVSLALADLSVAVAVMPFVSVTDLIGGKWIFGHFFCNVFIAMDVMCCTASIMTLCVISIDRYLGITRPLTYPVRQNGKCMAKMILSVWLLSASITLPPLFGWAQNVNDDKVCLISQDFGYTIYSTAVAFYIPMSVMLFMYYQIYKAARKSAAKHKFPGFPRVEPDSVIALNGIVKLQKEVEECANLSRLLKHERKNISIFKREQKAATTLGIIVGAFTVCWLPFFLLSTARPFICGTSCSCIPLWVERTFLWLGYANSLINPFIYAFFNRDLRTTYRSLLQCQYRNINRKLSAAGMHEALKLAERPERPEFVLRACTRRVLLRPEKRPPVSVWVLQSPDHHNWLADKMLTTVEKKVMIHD
T2 sequence (P35462 whole entry): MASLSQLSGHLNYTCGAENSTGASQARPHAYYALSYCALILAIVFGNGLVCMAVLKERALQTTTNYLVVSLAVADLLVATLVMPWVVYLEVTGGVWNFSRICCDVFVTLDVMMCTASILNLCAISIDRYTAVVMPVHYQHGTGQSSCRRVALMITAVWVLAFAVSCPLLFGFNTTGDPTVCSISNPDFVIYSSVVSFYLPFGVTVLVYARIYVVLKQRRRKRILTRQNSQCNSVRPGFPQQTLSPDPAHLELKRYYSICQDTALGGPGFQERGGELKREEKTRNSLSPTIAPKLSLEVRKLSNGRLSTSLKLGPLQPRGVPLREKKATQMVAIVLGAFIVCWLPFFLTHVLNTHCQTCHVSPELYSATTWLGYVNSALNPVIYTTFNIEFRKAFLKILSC
T1 sequence (P50406 whole entry): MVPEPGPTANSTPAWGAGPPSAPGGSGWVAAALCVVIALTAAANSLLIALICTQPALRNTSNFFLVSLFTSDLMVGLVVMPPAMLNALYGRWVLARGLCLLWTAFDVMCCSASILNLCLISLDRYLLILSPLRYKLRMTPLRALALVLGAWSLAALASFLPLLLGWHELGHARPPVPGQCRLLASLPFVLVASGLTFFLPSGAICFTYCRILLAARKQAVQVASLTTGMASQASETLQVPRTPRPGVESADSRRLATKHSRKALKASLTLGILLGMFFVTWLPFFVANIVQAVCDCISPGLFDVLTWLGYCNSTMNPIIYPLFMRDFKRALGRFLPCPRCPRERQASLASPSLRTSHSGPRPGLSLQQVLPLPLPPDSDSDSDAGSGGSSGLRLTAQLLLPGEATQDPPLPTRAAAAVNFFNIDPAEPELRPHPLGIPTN

Regarding `CC1(c2ccc(O)c(N)c2)C(=O)Nc2c(Br)cc(Br)cc2C1=O` (stereo not shown) [Example 30, 3-(3-amino-4-hydroxy-phenyl)-6,8-dibromo-3-methyl-1H-quinoline-2,4-dione], the IC50 in assay [1] worked out at 1730 nM. Also, the inhibition at 10 µM in assay [1] came out at 69.2%; in [2], 25.1%; in [3], 18.5%; in [4], 4.9%; in assay [5] it was 35.1%; in [6], 0%. Also, the inhibition at 10 µM was 0.9% in assay [7], 5.4% in assay [8] and 18.6% in [9].

For `COc1ccc(C2(C)C(=O)Nc3ccccc3C2=O)cc1` (stereo not shown) [Example 33, 3-(4-methoxy-phenyl)-3-methyl-1H-quinoline-2,4-dione], the IC50 in assay [1] was 487 nM. The inhibition at 10 µM in assay [1] stood at 72.4%; in [2] it was 13.1%; in assay [3], 20.9%; in assay [4], 6.6%; in assay [5] it was 10.7%; in assay [6], 20.4%. The inhibition at 10 µM in assay [7] was determined as 0%; in assay [8], 13.5%; in assay [9], 29.5%.

In the case of `CC1(c2ccc(O)cc2)C(=O)Nc2ccccc2C1=O` (stereo not shown) [Example 34, 3-(4-hydroxy-phenyl)-3-methyl-1H-quinoline-2,4-dione], the IC50 in assay [1] was determined as 1260 nM. The inhibition at 10 µM was 70.8% in assay [1]; 25.4% in assay [2]; 17.3% in assay [3]; 0.9% in assay [4]; 13.5% in assay [5]; 19.8% in assay [6]. In addition, the inhibition at 10 µM in [7] stood at 0%; in [8], 20.1%; in assay [9], 15.8%.

As to `CC1(c2ccc([N+](=O)[O-])cc2)C(=O)Nc2cc(Cl)c(Cl)cc2C1=O` (stereo not shown) [Example 36, 6,7-dichloro-3-methyl-3-(4-nitro-phenyl)-1H-quinoline-2,4-dione], in assay [1], the IC50 stood at 645 nM. The inhibition at 10 µM was 71.9% in assay [1]; 11.9% in assay [2]; 16.5% in [3]; 16.5% in assay [4]; 13.2% in assay [5]; 42.1% in assay [6]. In addition, the inhibition at 10 µM in assay [7] is 0%; in [8], 8.2%; in assay [9], 12.6%.

With `CNc1ccc(C2(C)C(=O)Nc3cc(Cl)cc(Cl)c3C2=O)cc1` (stereo not shown) [Example 39, 5,7-dichloro-3-methyl-3-(4-methylamino-phenyl)-1H-quinoline-2,4-dione], the IC50 in assay [1] was determined as 418 nM. Moreover, the inhibition at 10 µM was 72% in assay [1]; 8.4% in [2]; 19.8% in assay [3]; 9.1% in assay [4]; 12.1% in assay [5]; 23% in assay [6]. In addition, the values for the inhibition at 10 µM in assay [7], in [8] and in [9] were 10.2%, 13.1% and 38.5%, respectively.

As to `CCNc1ccc(C2(C)C(=O)Nc3cc(Cl)cc(Cl)c3C2=O)cc1` (stereo not shown) [Example 41, 5,7-dichloro-3-methyl-3-(4-ethylamino-phenyl)-1H-quinoline-2,4-dione], in assay [1], the IC50 came out at 46 nM. For the same molecule, in assay [1] (in words), the “5-HT6 affinity compared with known selective antagonists” value was “almost same affinities as or better affinities than known selective antagonists”. Further, the inhibition at 10 µM turned out to be 67.7% in [1]; 12.6% in assay [2]; 25.2% in [3]; 15.4% in assay [4]; 10.8% in assay [5]; 15.7% in [6]. Further, the inhibition at 10 µM in [7] was 0%; in [8], 14%; in assay [9], 24%.

On to `C[C@H](NC(=O)Nc1cccc([C@@]2(C)C(=O)Nc3cc(Cl)cc(Cl)c3C2=O)c1)c1ccccc1` [Example 43, 1-(R)-[3-(5,7-dichloro-3-methyl-2,4-dioxo-1,2,3,4-tetrahydro-quinoline-3-yl) -phenyl]-3-(1-(S) -phenyl-ethyl) -urea], for which the IC50 in assay [1] came to 1110 nM. For the same molecule, the inhibition at 10 µM in [1] is 70.6%; in assay [2] it was 24%; in [3], 5.7%; in assay [4] it was 5%; in [5], 21.3%; in [6], 18%. Besides, the inhibition at 10 µM in [7] came to 6.1%; in [8], 0%; in assay [9], 30.1%.

With `C[C@H](NC(=O)Nc1cccc([C@]2(C)C(=O)Nc3cc(Cl)cc(Cl)c3C2=O)c1)c1ccccc1` [Example 44, 1-(S)-[3-(5,7-dichloro-3-methyl-2,4-dioxo-1,2,3,4-tetrahydro-quinoline-3-yl) -phenyl]-3-(1-(S) -phenyl-ethyl) -urea], the 50% inhibitory concentration (IC50) in assay [1] is 791 nM. Also, the inhibition at 10 µM stood at 73.8% in assay [1]; 16.2% in assay [2]; 11.5% in assay [3]; 32.2% in [4]; 58.5% in [5]; 25.4% in assay [6]. In addition, the inhibition at 10 µM in assay [7] came to 0%; in assay [8], 21.5%; in assay [9] it was 35%.

Consider `CC1(c2ccc(Br)cc2Br)C(=O)Nc2cc(Cl)ccc2C1=O` (stereo not shown) [Example 45, 7-chloro-3-(2,4-dibromo-phenyl)-3-methyl-1H-quinoline-2,4-dione], for which, in assay [1], the IC50 came to 2220 nM. The inhibition at 10 µM in [1] is 66%; in [2] it was 5.6%; in [3], 13%; in assay [4], 29.5%; in assay [5] it was 23%; in assay [6], 60.3%. In addition, the inhibition at 10 µM in assay [7] worked out at 0%; in assay [8] it was 31.6%; in assay [9], 42.3%.
